Measured values as given in the NIST ThermoML archive (doi:10.1016/j.jct.2014.07.018).
Where “and” joins values, the source holds several entries; their conditions need not be identical. Equal values may be shown once.

Assay: molar heat capacity at constant pressure
Conditions: 101.33 kPa, Vacuum adiabatic calorimetry

CCC[n+]1ccn(C)c1.[Br-] [1-methyl-3-propylimidazolium bromide]
molar heat capacity at constant pressure
Conditions | Crystal 2 | Liquid
228.67 K | 177 J/K/mol | –
229.42 K | 177.5 J/K/mol | –
230 K | 177.8 J/K/mol | 261.5 J/K/mol
230.71 K | 178.2 J/K/mol | –
231.48 K | 178.7 J/K/mol | –
233.47 K | 180 J/K/mol | –
233.54 K | 180 J/K/mol | –
235.59 K | 181.3 J/K/mol | –
235.81 K | 181.5 J/K/mol | –
237.64 K | 182.5 J/K/mol | –
237.86 K | 182.7 J/K/mol | –
239.69 K | 183.9 J/K/mol | –
239.9 K | 184.1 J/K/mol | –
240 K | 184.1 J/K/mol | 263.8 J/K/mol
241.74 K | 185.1 J/K/mol | –
241.94 K | 185.3 J/K/mol | –
243.78 K | 186.4 J/K/mol | –
243.99 K | 186.6 J/K/mol | –
245.82 K | 187.8 J/K/mol | –
246.03 K | 187.9 J/K/mol | –
247.86 K | 189.1 J/K/mol | –
248.07 K | 189.3 J/K/mol | –
249.89 K | 190.6 J/K/mol | –
250 K | 190.6 J/K/mol | 266.2 J/K/mol
250.11 K | 190.7 J/K/mol | –
251.92 K | 192 J/K/mol | –
252.16 K | 192.2 J/K/mol | –
253.95 K | 193.4 J/K/mol | –
254.2 K | 193.6 J/K/mol | –
255.97 K | 194.9 J/K/mol | –
256.25 K | 195.1 J/K/mol | –
257.98 K | 196.4 J/K/mol | –
258.29 K | 196.7 J/K/mol | –
260 K | 198 J/K/mol and 198.1 J/K/mol | 269.1 J/K/mol
260.33 K | 198.3 J/K/mol | –
262 K | 199.6 J/K/mol | –
262.37 K | 199.9 J/K/mol | –
264.01 K | 201.2 J/K/mol | –
264.42 K | 201.7 J/K/mol | –
266.06 K | 203.2 J/K/mol | –
266.47 K | 203.4 J/K/mol | –
268.16 K | 205.1 J/K/mol | –
268.52 K | 205.3 J/K/mol | –
270 K | 206.7 J/K/mol | 272 J/K/mol
270.26 K | 207.1 J/K/mol | –
270.57 K | 207.1 J/K/mol | –
272.36 K | 209.2 J/K/mol | –
272.62 K | 209.4 J/K/mol | –
274.45 K | 211.5 J/K/mol | –
274.67 K | 211.5 J/K/mol | –
276.54 K | 213.9 J/K/mol | –
276.71 K | 213.9 J/K/mol | –
278.62 K | 216.6 J/K/mol | –
278.75 K | 216.6 J/K/mol | –
280 K | 216.4 J/K/mol | 275.1 J/K/mol
280.68 K | 219.5 J/K/mol | –
280.79 K | 219.5 J/K/mol | –
282.74 K | 222.7 J/K/mol | –
282.84 K | 222.7 J/K/mol | –
284.78 K | 226.4 J/K/mol | –
284.88 K | 226.6 J/K/mol | –
286.82 K | 230.9 J/K/mol | –
288.82 K | 236.3 J/K/mol | –
290 K | 227.1 J/K/mol | 278.2 J/K/mol
290.81 K | 242.8 J/K/mol | –
292.77 K | 251.5 J/K/mol | –
294.69 K | 262.7 J/K/mol | –
295.89 K | – | 280.2 J/K/mol
296.57 K | 278.5 J/K/mol | –
297.86 K | – | 280.6 J/K/mol
298.15 K | – | 280.8 J/K/mol
298.39 K | 300.9 J/K/mol | –
299.92 K | – | 281.4 J/K/mol
300 K | – | 281.4 J/K/mol
300.12 K | 334.9 J/K/mol | –
301.74 K | 387.4 J/K/mol | –
301.97 K | – | 282 J/K/mol
303.2 K | 470.7 J/K/mol | –
304.02 K | – | 282.8 J/K/mol
304.47 K | 613.7 J/K/mol | –
305.51 K | 844.2 J/K/mol | –
306.07 K | – | 283.2 J/K/mol
306.32 K | 1193 J/K/mol | –
306.93 K | 1697 J/K/mol | –
308.12 K | – | 284.1 J/K/mol
309.54 K | 251.4 J/K/mol | 284.6 J/K/mol
310 K | – | 284.7 J/K/mol
310.17 K | – | 284.7 J/K/mol
312.01 K | – | 285.5 J/K/mol
312.22 K | – | 285.3 J/K/mol
314.27 K | – | 285.9 J/K/mol
316.32 K | – | 286.9 J/K/mol
318.37 K | – | 287.5 J/K/mol
320 K | – | 288.1 J/K/mol
320.41 K | – | 288.2 J/K/mol
322.46 K | – | 288.8 J/K/mol
324.5 K | – | 289.6 J/K/mol
326.54 K | – | 290.4 J/K/mol
328.58 K | – | 291 J/K/mol
330 K | – | 291.7 J/K/mol
330.62 K | – | 291.9 J/K/mol
332.66 K | – | 292.7 J/K/mol
334.7 K | – | 293.3 J/K/mol
336.73 K | – | 294.1 J/K/mol
338.61 K | – | 294.7 J/K/mol
340 K | – | 295.3 J/K/mol
340.58 K | – | 295.5 J/K/mol
342.63 K | – | 296.2 J/K/mol
344.68 K | – | 297 J/K/mol
346.73 K | – | 297.8 J/K/mol
348.78 K | – | 298.6 J/K/mol
350 K | – | 299.1 J/K/mol
350.82 K | – | 299.4 J/K/mol
352.87 K | – | 300.3 J/K/mol
354.92 K | – | 300.9 J/K/mol
356.97 K | – | 301.7 J/K/mol
359.01 K | – | 302.5 J/K/mol
360 K | – | 303 J/K/mol
361.05 K | – | 303.5 J/K/mol
363.1 K | – | 304.2 J/K/mol
365.14 K | – | 305 J/K/mol
367.18 K | – | 305.8 J/K/mol
370 K | – | 307 J/K/mol
